Laboratory results published in the supplement of paper PMC10307832.

Key:
Test in all cases: relative viability (nuclei count vs DMSO), 5 days (fraction); higher = more cells survive
[1] = compound: N[C@@H]1CCCN(c2c(/C=C3\SC(=O)NC3=O)cccc2-c2ccccc2)C1 [AZD1208] + Nc1nc2[nH]cc(CCc3ccc(C(=O)N[C@@H](CCC(=O)O)C(=O)O)cc3)c2c(=O)[nH]1 [Pemetrexed] (partner 0.2 µM)
Procedure, shortened: (§1)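 The day after seeding in 1536-well plates, lung cancer cell lines were treated by pin tool with a single drug, or with a fixed anchor-drug dose together with five library-drug doses (not always all listed) in √10 steps. After 5 days, a combined fix-and-stain solution (final 0.05% Triton X-100, 1% formaldehyde, 1 ug/ml Hoechst) was added. Nuclei counted on 4× images gave relative viability as treated counts over vehicle counts, reported as the median of duplicate plates.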

[2] = compound: CN1CCN(CC1)C2=CC(=C(C=C2)NC3=NC(=C(S3)C(=O)C4=C(C=CC=C4Cl)Cl)N)OC [XMD14-99] + COc1cccc2cc(-c3nc([C@H]4CC[C@H](C(=O)O)CC4)n4ncnc(N)c34)[nH]c12 [OSI-027] (partner 0.5 µM)
Procedure, shortened: as §1

[3] = compound: N[C@@H]1CCCN(c2c(/C=C3\SC(=O)NC3=O)cccc2-c2ccccc2)C1 [AZD1208]
Procedure, shortened: (§2)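 Acceptance criteria were a control CV below 25% and at least one doubling per plate. Lung cancer cell lines in 1536-well plates got five library-drug doses (not always all listed) √10 apart by pinning and were left 5 days with no medium change. Viability divides treated-well nuclei by vehicle-well nuclei and is the median across plates. Nuclei were counted by MetaXpress from 4× Hoechst images.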

[4] = compound: CN1CCN(CC1)C2=CC(=C(C=C2)NC3=NC(=C(S3)C(=O)C4=C(C=CC=C4Cl)Cl)N)OC [XMD14-99]
Procedure, shortened: as §2

PC-14
relative viability ([1]; first compound 0.08 µM): 0.125
relative viability ([1]; first compound 0.253 µM): 0.132
relative viability ([1]; first compound 0.8 µM): 0.14
relative viability ([1]; first compound 2.53 µM): 0.153
relative viability ([1]; first compound 8 µM): 0.165
relative viability ([2]; first compound 0.08 µM): 0.809
relative viability ([2]; first compound 0.8 µM): 0.806
relative viability ([2]; first compound 2.53 µM): 0.644
relative viability ([2]; first compound 8 µM): 0.29
relative viability ([3]; 0.08 µM): 1.07
relative viability ([3]; 0.253 µM): 1.11
relative viability ([3]; 0.8 µM): 0.923
relative viability ([3]; 2.53 µM): 0.996
relative viability ([3]; 8 µM): 0.953
relative viability ([4]; 0.08 µM): 1.02
relative viability ([4]; 0.8 µM): 1.01
relative viability ([4]; 2.53 µM): 0.907
relative viability ([4]; 8 µM): 0.646

RERF-LC-KJ
relative viability ([1]; first compound 0.08 µM): 0.515
relative viability ([1]; first compound 0.253 µM): 0.441
relative viability ([1]; first compound 0.8 µM): 0.505
relative viability ([1]; first compound 2.53 µM): 0.476
relative viability ([1]; first compound 8 µM): 0.491
relative viability ([2]; first compound 0.08 µM): 0.572
relative viability ([2]; first compound 0.8 µM): 0.556
relative viability ([2]; first compound 2.53 µM): 0.527
relative viability ([2]; first compound 8 µM): 0.366
relative viability ([3]; 0.08 µM): 0.998
relative viability ([3]; 0.253 µM): 1.03
relative viability ([3]; 0.8 µM): 0.878
relative viability ([3]; 2.53 µM): 0.935
relative viability ([3]; 8 µM): 0.746
relative viability ([4]; 0.08 µM): 0.991
relative viability ([4]; 0.8 µM): 0.938
relative viability ([4]; 2.53 µM): 0.903
relative viability ([4]; 8 µM): 0.834

SK-LU-1
relative viability ([1]; first compound 0.08 µM): 0.956
relative viability ([1]; first compound 0.253 µM): 1.02
relative viability ([1]; first compound 0.8 µM): 0.988
relative viability ([1]; first compound 2.53 µM): 0.944
relative viability ([1]; first compound 8 µM): 0.869
relative viability ([2]; first compound 0.08 µM): 0.34
relative viability ([2]; first compound 0.8 µM): 0.391
relative viability ([2]; first compound 2.53 µM): 0.301
relative viability ([2]; first compound 8 µM): 0.213
relative viability ([3]; 0.08 µM): 0.988
relative viability ([3]; 0.253 µM): 1.15
relative viability ([3]; 0.8 µM): 0.932
relative viability ([3]; 2.53 µM): 1.05
relative viability ([3]; 8 µM): 0.922
relative viability ([4]; 0.08 µM): 0.987
relative viability ([4]; 0.8 µM): 1.04
relative viability ([4]; 2.53 µM): 0.948
relative viability ([4]; 8 µM): 0.7
